Results as given in ChEMBL document CHEMBL3244188, “Antagonists of slow reacting substance of anaphylaxis. Synthesis of a series of chromone-2-carboxylic acids” (J Med Chem, 1977).

tested on: Ileum; experiment: Antagonism of slow reacting substance of anaphylaxis-induced contraction in guinea pig ileum treated 30 secs before SRS-A challenge; assay type: functional, tissue-based; settings: Cavia porcellus

Compound | IC50 [µg/mL]
C=CCc1ccccc1OCC(O)COc1ccc2c(=O)cc(C(=O)[O-])oc2c1.[Na+] (stereo not drawn) | 1.8
O=C([O-])c1cc(=O)c2c(OCCCCCCCOc3ccccc3)cccc2o1.[Na+] | 0.8
O=C([O-])c1cc(=O)c2c(OCCCCCCCCCOc3ccccc3)cccc2o1.[Na+] | 6
O=C([O-])c1cc(=O)c2c(OCCOc3ccccc3)cccc2o1.[Na+] | 100
O=C([O-])c1cc(=O)c2c(OCCCOc3ccccc3)cccc2o1.[Na+] | 35
O=C([O-])c1cc(=O)c2c(OCCCCCOc3ccccc3)cccc2o1.[Na+] | 17.5
O=C([O-])c1cc(=O)c2cc(OCCCOc3ccccc3)ccc2o1.[Na+] | 3.3
O=C([O-])c1cc(=O)c2cc(OCCCCCOc3ccccc3)ccc2o1.[Na+] | 3.3
O=C([O-])c1cc(=O)c2cc(Cc3ccccc3)ccc2o1.[Na+] | 6.6
O=C([O-])c1cc(=O)c2cc(CCCc3ccccc3)ccc2o1.[Na+] | 3
O=C([O-])c1cc(=O)c2cc(CCCCCc3ccccc3)ccc2o1.[Na+] | 4.5
O=C([O-])c1cc(=O)c2ccc(OCCOc3ccccc3)cc2o1.[Na+] | 15
O=C([O-])c1cc(=O)c2ccc(OCCCOc3ccccc3)cc2o1.[Na+] | 1.4
O=C([O-])c1cc(=O)c2ccc(OCCCCCOc3ccccc3)cc2o1.[Na+] | 0.4
O=C([O-])c1cc(=O)c2ccc(OCCCCCCCOc3ccccc3)cc2o1.[Na+] | 1.8
O=C([O-])c1cc(=O)c2ccc(OCCCCCCCCCOc3ccccc3)cc2o1.[Na+] | 1.8
O=C([O-])c1cc(=O)c2ccc(OCCCCCSc3ccccc3)cc2o1.[Na+] | 0.4
O=C([O-])c1cc(=O)c2ccc(SCCCCCOc3ccccc3)cc2o1.[Na+] | 0.3
O=C([O-])c1cc(=O)c2ccc(OCCCCCc3ccccc3)cc2o1.[Na+] | 0.6
O=C([O-])c1cc(=O)c2cccc(OCCCOc3ccccc3)c2o1.[Na+] | 50
O=C([O-])c1cc(=O)c2cccc(OCCCCCOc3ccccc3)c2o1.[Na+] | 9
C=CCc1ccc(OCCCCCOc2ccc3c(=O)cc(C(=O)[O-])oc3c2)c(C(C)=O)c1O.[Na+] | 0.9
O=C([O-])c1cc(=O)c2ccc(OCCCCCOc3cccc(O)c3)cc2o1.[Na+] | 1.5
O=C([O-])c1cc(=O)c2ccc(OCCCCCOc3cccc(OCc4ccccc4)c3)cc2o1.[Na+] | 1

Compound | IC50 [µg/mL]
COc1cccc(OCCCCCOc2ccc3c(=O)cc(C(=O)[O-])oc3c2)c1.[Na+] | 1.5
CC(=O)c1ccc(OCCCCCOc2ccc3c(=O)cc(C(=O)[O-])oc3c2)cc1.[Na+] | 3.5
C=CCc1c(OCCCCCOc2ccc(C(=O)CN)cc2)ccc2c(=O)cc(C(=O)[O-])oc12.[Na+] | 3.9
C=CCc1c(OCCCCCOc2cccc(O)c2C(C)=O)ccc2c(=O)cc(C(=O)[O-])oc12.[Na+] | 0.05
C=CCc1c(OCCCCCOc2ccc(C(C)=O)cc2)ccc2c(=O)cc(C(=O)[O-])oc12.[Na+] | 2.4
C=CCc1c(OCCCCCOc2ccc3c(=O)cc(C(=O)[O-])oc3c2CC=C)ccc(C(C)=O)c1O.[Na+] | 1.23
CC(=O)c1ccc(OCCCCCOc2ccc3c(=O)cc(C(=O)[O-])oc3c2)cc1O.[Na+] | 6.8
CCCc1ccccc1OCCCOc1ccc2c(=O)cc(C(=O)[O-])oc2c1CCC.[Na+] | 0.18
CCCc1ccccc1OCCCOc1cc2oc(C(=O)[O-])cc(=O)c2cc1CCC.[Na+] | 18
CCCc1c(OCCCOc2ccc3c(=O)cc(C(=O)[O-])oc3c2CCC)ccc(C(C)=O)c1O.[Na+] | 0.001
O=C([O-])c1cc(=O)c2ccc(OCC(O)COc3ccccc3)cc2o1.[Na+] (stereo not drawn) | 7
CC(=O)c1ccc(OCC(O)COc2ccc3c(=O)cc(C(=O)[O-])oc3c2)cc1O.[Na+] (stereo not drawn) | 28
C=CCc1c(OCC(O)COc2ccc3c(=O)cc(C(=O)[O-])oc3c2)ccc(C(C)=O)c1O.[Na+] (stereo not drawn) | 0.1
C=CCc1c(OCC(O)COc2ccc(C(C)=O)c(O)c2)ccc2c(=O)cc(C(=O)[O-])oc12.[Na+] (stereo not drawn) | 3.3
C=CCc1c(OCC(O)COc2ccc3c(=O)cc(C(=O)[O-])oc3c2CC=C)ccc(C(C)=O)c1O.[Na+] (stereo not drawn) | 0.05
CCCc1c(OCC(O)COc2ccc3c(=O)cc(C(=O)[O-])oc3c2)ccc(C(C)=O)c1O.[Na+] (stereo not drawn) | 0.08
CCCc1ccccc1OCC(O)COc1ccc2c(=O)cc(C(=O)[O-])oc2c1.[Na+] (stereo not drawn) | 2
CCCc1ccccc1OCC(O)COc1ccc2c(=O)cc(C(=O)[O-])oc2c1CCC.[Na+] (stereo not drawn) | 0.044
CCCc1ccccc1OCC(O)COc1cc2oc(C(=O)[O-])cc(=O)c2cc1CCC.[Na+] (stereo not drawn) | 1.6
CCCc1c(OCC(O)COc2ccc3c(=O)cc(C(=O)[O-])oc3c2CCC)ccc(C(C)=O)c1OC.[Na+] (stereo not drawn) | 45
CCCc1cc(C(C)=O)ccc1OCC(O)COc1ccc2c(=O)cc(C(=O)[O-])oc2c1CCC.[Na+] (stereo not drawn) | 0.15
CCCc1c(OCc2ccccc2)cccc1OCC(O)COc1ccc2c(=O)cc(C(=O)[O-])oc2c1CCC.[Na+] (stereo not drawn) | 1
CCCc1c(OCC(O)COc2cccc(O)c2C(C)=O)ccc2c(=O)cc(C(=O)[O-])oc12.[Na+] (stereo not drawn) | 0.3
CCCc1c(OCC(O)COc2ccc3c(=O)cc(C(=O)[O-])oc3c2CCC)ccc(C(C)=O)c1O.[Na+] (stereo not drawn) [FPL-55712 SODIUM SALT] | 0.005
